Laboratory results taken from article PMC9468151, “Identification of a binding site on soluble RANKL that can be targeted to inhibit soluble RANK-RANKL interactions and treat osteoporosis” (Nature Communications, 2022).
Where “and” joins values, the source holds several entries; their conditions need not be identical. Equal values may be shown once.

Key:
[1] = system: RAW264.7 cells; experiment: In vitro cytotoxicity assay (MTT); type: cell-based, mouse; conditions: RAW264.7, MTT
Description: MTT assay was used to determine cell viability. RAW264.7 cells in the logarithmic growth phase were cultured in 96-well plates with 6 × 10^3 cells in each well and incubated for 24 h. The surviving cells were then determined by MTT method. […] Cell growth inhibition ratio was calculated as follows: Cellgrowthinhibitionratio%=ODvehicle−ODtreaed/ODvehicle×100%
Cell cytotoxicity CC50 value were conducted by using Nonlinear regression (curve fit) analytic procedure in GraphPad Prism 8.

[2] = system: sRANKL induced osteoclast differentiation; experiment: In vitro anti-osteoclastogenesis activity determination (TRAP staining); type: cell-based, mouse; parameters: key to inhibition of osteoclastogenesis, dose-response (fig. S2a): % inhibition = 100 − (treated−unstimulated)/(untreated−unstimulated)×100; conditions: for inhibition of osteoclastogenesis, dose-response (fig. S2a): three replicate columns; for IC50: BMMs, M-CSF + 100 ng/mL sRANKL, 5 days, TRAP staining, read-out: OC IC50 (anti-osteoclastogenesis activity)
Description: Mouse osteoclasts were cultured according to the previously reported protocols. BMMs were plated in 96-well plates at a density of 6 × 10^3 cells/well with complete medium containing 10 ng/mL M-CSF. The following day, cells were then stimulated with 100 ng/mL sRANKL in the presence or absence of compounds with different concentrations every 2 days until osteoclasts formed. In order to calculate IC50, we set 9 concentrations for each compound and untreated and non-sRANKL unstimulating group as controls, each with triplicated repeated wells. After 5 days, cells were fixed with 4% paraformaldehyde and then applied TRAP-staining to identify osteoclasts by using the TRAP-staining kit. Osteoclasts number (OC No.) in each well was counted and the percentage of inhibition ratio was calculated as follows:1 OCinhibitoryratio%=100−OCNo.treated−OCNo.unstimulating/OCNo.untreated−OCNo.unstimulating×100%
The dosages and their correspondent osteoclastogenesis inhibitory activity curve and IC50 value were conducted by using Nonlinear regression (curve fit) analytic procedure in GraphPad Prism 8. Photographs of individual wells were taken using Leica microscope.

Compound	CC50 [1] [µM]	inhibition of osteoclastogenesis, dose-response (fig. S2a) ([2]; conc. 0.0023464 μM)	inhibition of osteoclastogenesis, dose-response (fig. S2a) ([2]; conc. 0.00774313 μM)	inhibition of osteoclastogenesis, dose-response (fig. S2a) ([2]; conc. 0.0255523 μM)	inhibition of osteoclastogenesis, dose-response (fig. S2a) ([2]; conc. 0.0843226 μM)	inhibition of osteoclastogenesis, dose-response (fig. S2a) ([2]; conc. 0.278265 μM)	inhibition of osteoclastogenesis, dose-response (fig. S2a) ([2]; conc. 0.918274 μM)	inhibition of osteoclastogenesis, dose-response (fig. S2a) ([2]; conc. 3.0303 μM)	inhibition of osteoclastogenesis, dose-response (fig. S2a) ([2]; conc. 10 μM)	inhibition of osteoclastogenesis, dose-response (fig. S2a) ([2]; conc. 33 μM)	IC50 [2] [nM]
CC(=O)C(=NNc1ccccc1C(=O)[O-])C(=O)Nc1nc(C)cs1.[Na+] [S3-12]	65.8	4.4898 and 6.02 and -2.2449	6.939 and -1.02 and -1.633	4.796 and 0.8163 and -3.469	37.8571 and 16.4286 and 7.857	39.3878 and 32.9592 and 21.3265	55.3061 and 47.3469 and 54.0816	74.2857 and 67.551 and 64.4898	94.7959 and 77.0408 and 85	100	–
CCOC(=O)c1sc(NC(=O)C(=NNc2ccc(C)cc2C(=O)O)C(C)=O)nc1C [S3-13]	> 100	1.735 and -0.7143 and 2.347	1.735 and -2.551 and 3.571	7.857 and -4.694 and -0.102	11.8367 and 3.878 and -9.592	11.2245 and 7.551 and -1.327	7.2449 and 6.633 and 3.571	7.2449 and 2.959 and -1.327	47.6531 and 40.3061 and 42.7551	100	10700
CCOC(=O)c1sc(NC(=O)C(=NNc2ccc(F)cc2C(=O)O)C(C)=O)nc1C [S3-14]	76.2	3.265 and -2.857 and -2.551	7.2449 and 0.2041 and -2.857	7.2449 and 2.041 and 14.2857	37.8571 and 28.9796 and 23.4694	54.3878 and 61.4286 and 45.8163	73.9796 and 67.2449 and 59.2857	88.9796 and 96.3265 and 87.7551	98.4694 and 95.7143 and 97.551	100	270
CC(=O)C(=NNc1ccccc1C(=O)O)C(=O)Nc1ccc(C#N)cn1 [S3-15-1]	81.2	2.8169 and -0.3521 and -2.465	2.113 and 9.859 and 10.5634	19.3662 and 16.1972 and 17.6056	28.169 and 26.7606 and 24.2958	28.169 (2×) and 24.2958	45.0704 and 44.7183 (2×)	59.8591 and 57.7465 and 60.9155	77.4648 and 79.5775 and 76.0563	100	1050
COC(=O)c1cccc(NC(=O)C(=NNc2ccccc2C(=O)O)C(C)=O)n1 [S3-15-2]	> 100	11.9718 and 6.338 and 4.225	7.394 and 8.4507 and 9.155	9.507 and 6.338 and 9.155	31.6901 and 21.831 and 24.2958	33.0986 and 27.4648 and 28.169	47.1831 and 47.5352 and 44.3662	59.1549 (2×) and 58.0986	72.8873 and 71.1268 and 70.4225	88.3803 and 89.4366 and 88.7324	1260
CC(=O)C(=NNc1ccc(O)cc1C(=O)O)C(=O)Nc1ccccn1 [S3-15-3]	62.8	7.632 and 19.0789 and 12.7632	4.079 and 5.263 and 2.105	2.105 and -3.421 and -3.026	11.579 and 29.3421 and 8.026	15.5263 and 26.9737 and 19.0789	44.7368 and 36.4474 and 37.6316	52.6316 and 53.8158 and 45.1316	64.4737 and 56.1842 and 57.3684	73.9474 and 72.3684 and 70.7895	3590
